In patent publication US4906662A, “Phenol derivatives, their preparation and the use thereof” (Otsuka Pharmaceutical Factory, Inc., priority 1986, dated 1990):
Counter-ions that a name gives are not always drawn.

Columns and labels:
[1] = system: carrageenin-induced paw edema; assay: Anti-inflammatory activity: inhibition of carrageenin-induced paw edema in rats; format: in vivo, rat (S.D. strain, male); settings: po, read-out: Percent inhibition of edema; for inhibition in vivo at 100 mg/kg: 100 mg/kg p.o., rat, 3 hours after carrageenin
Protocol: (1) Anti-inflammatory activity:inhibition of carrageenin-induced paw edema in rats The compound was tested for the above activity according to the method of Winter et al. [Proc. Soc. […] One hour after the test compound was orally given to the animal, 0.1 ml of 1% carrageenin solution was subcutaneously injected into the right footpad. The paw volume was measured 3 hours thereafter, and the resulting increase in the volume was calculated based on the volume before the injection of carrageenin solution. The percent inhibition was determined in comparison with the increase in the control group.

5-lipoxygenase = target: T1, 5-lipoxygenase (Cavia porcellus, UniProt A0A286X958); assay: 5-Lipoxygenase inhibitory activity (5-HETE formation in guinea pig peritoneal exudate cells); format: cell-based; settings: read-out: Percent inhibition of 5-lipoxygenase
T1 construct: endogenous in cells; host or cells: guinea pig peritoneal exudate cells (casein-elicited), intact cell suspension
T1 sequence (A0A286X958 1-674): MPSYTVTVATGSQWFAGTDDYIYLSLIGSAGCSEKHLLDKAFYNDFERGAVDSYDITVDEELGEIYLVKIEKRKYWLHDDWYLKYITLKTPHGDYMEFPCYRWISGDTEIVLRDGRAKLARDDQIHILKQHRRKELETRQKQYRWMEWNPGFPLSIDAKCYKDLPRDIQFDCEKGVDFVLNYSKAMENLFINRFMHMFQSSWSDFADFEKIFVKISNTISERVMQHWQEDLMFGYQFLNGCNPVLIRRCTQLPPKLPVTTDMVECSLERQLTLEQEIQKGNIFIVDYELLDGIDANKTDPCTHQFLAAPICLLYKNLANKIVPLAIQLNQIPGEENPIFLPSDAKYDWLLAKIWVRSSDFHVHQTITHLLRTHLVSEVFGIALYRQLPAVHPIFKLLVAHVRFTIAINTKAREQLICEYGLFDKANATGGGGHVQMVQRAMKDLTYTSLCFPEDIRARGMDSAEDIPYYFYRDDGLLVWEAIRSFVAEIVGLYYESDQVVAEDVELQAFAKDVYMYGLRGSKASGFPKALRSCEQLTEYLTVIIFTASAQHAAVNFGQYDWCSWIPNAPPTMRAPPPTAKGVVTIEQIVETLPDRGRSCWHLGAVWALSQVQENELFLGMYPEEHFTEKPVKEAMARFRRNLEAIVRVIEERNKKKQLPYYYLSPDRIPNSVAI
Protocol: (J. Biol. Chem., 256, 4156 (1981)) and to the method of Ochi et al. (J. Biol. Chem., 258, 5754 (1983). More specifically, 2% casein was intraperitoneally given to a guinea pig, which was bleeded to death 14 to 16 hours thereafter. The peritoneal cavity was washed to collect exudate cells, which were suspended in a phosphate buffer containing 1 mM CaCl2 and 5.5 mM glucose to a concentration of 2.5×10^7 cells/ml. The cell suspension was incubated at 30° C. for 2 minutes. The test compound was then added to the cell suspension, followed by incubation for 2 minutes. With addition of 10 μM of A23187 first and then 10 μM of ^14 C-arachidonic acid to the resulting suspension. Then, the suspension was incubated for 3 minutes. […] The arachidonic acid, 5(S)-hydroxy-6,8,11,14-eicosatetraenoic acid (5-HETE) and other portions were thereafter scraped off, and ^14 C was counted by a scintillator.

| Structure (SMILES) | inhibition in vivo at 100 mg/kg [1] [%] | inhibition at 1 µM (5-lipoxygenase) [%] | inhibition at 10 µM (5-lipoxygenase) [%] | inhibition in vivo at 5 mg/kg ([1]; Rattus norvegicus, 3 h) [%] |
| --- | --- | --- | --- | --- |
| CC(C)(C)c1cc(Nc2ccccc2)cc(C(C)(C)C)c1O [2,6-di-tert-butyl-4-phenylaminophenol, reference compound] | 62 | 2 | 62 | – |
| CC(C)(C)c1cc(Nc2ccc(F)cc2)cc(C(C)(C)C)c1O [Compound 1, 2,6-di-tert-butyl-4-(4-fluorophenylamino)phenol] | 57 | 24 | 36 | – |
| CC(C)(C)c1cc(Nc2ccccc2Cl)cc(C(C)(C)C)c1O [Compound 2] | 12 | – | – | – |
| CC(C)(C)c1cc(Nc2ccccc2O)cc(C(C)(C)C)c1O [Compound 3] | 25 | – | – | – |
| CC(C)(C)c1cc(Nc2cccc(C(F)(F)F)c2)cc(C(C)(C)C)c1O [Compound 4] | 16 | – | – | – |
| CC(C)(C)c1cc(Nc2ccc(CC(=O)O)cc2)cc(C(C)(C)C)c1O [Compound 5] | – | 21 | 46 | – |
| COc1ccc(Nc2cc(C(C)(C)C)c(O)c(C(C)(C)C)c2)cc1 [Compound 7] | 41 | – | 49 | – |
| CC(=O)c1ccc(Nc2cc(C(C)(C)C)c(O)c(C(C)(C)C)c2)cc1 [Compound 9] | – | 27 | 67 | – |
| CSc1ccccc1Nc1cc(C(C)(C)C)c(O)c(C(C)(C)C)c1 [Compound 12] | 41 | – | – | – |
| CC(C)(C)c1cc(Nc2ccc(N)cc2)cc(C(C)(C)C)c1O [Compound 14] | 42 | 15 | 57 | – |
| CC(C)(C)c1cc(Nc2cc(Cl)ccc2O)cc(C(C)(C)C)c1O [Compound 19] | – | 37 | 58 | – |
| Cc1ccc(Nc2cc(C(C)(C)C)c(O)c(C(C)(C)C)c2)cc1 [Compound 20] | – | 16 | 51 | – |
| CC(C)(C)c1cc(Nc2ccc(CCCC(=O)O)cc2)cc(C(C)(C)C)c1O [Compound 22] | – | 28 | 67 | – |
| CC(C)(C)c1cc(Nc2cccc(C(=O)O)c2)cc(C(C)(C)C)c1O [Compound 24, 2,6-di-tert-butyl-4-(3-carboxyphenylamino)phenol] | – | 26 | 51 | – |
| CC(C)(C)c1cc(Nc2ccccc2C(=O)O)cc(C(C)(C)C)c1O [Compound 25, 2,6-di-tert-butyl-4-(2-carboxyphenylamino)phenol] | – | – | 66 | – |
| CC(C)(C)c1cc(Nc2ccc(C(=O)O)cc2)cc(C(C)(C)C)c1O [Compound 26] | – | 33 | 71 | – |
| CC(C)(C)c1cc(Nc2ccc(C#N)cc2)cc(C(C)(C)C)c1O [Compound 28, 2,6-di-tert-butyl-4-(4-cyanophenylamino)phenol] | 58 | – | – | – |
| Cc1ccc(Nc2cc(C(C)(C)C)c(O)c(C(C)(C)C)c2)c(C(=O)O)c1 [Compound 29] | – | 19 | 71 | – |
| CC(C)(C)c1cc(Nc2ccc(CCO)cc2)cc(C(C)(C)C)c1O [Compound 33] | – | 52 | 86 | – |
| CC(C)(C)c1cc(Nc2ccc(Cl)cc2CO)cc(C(C)(C)C)c1O [Compound 38, 2,6-di-tert-butyl-4-(4-chloro-2-hydroxymethylphenylamino)phenol] | 79 | – | – | – |
| CN(C)c1ccc(Nc2cc(C(C)(C)C)c(O)c(C(C)(C)C)c2)cc1 [Compound 42, 4-(4-dimethylaminophenylamino)-2,6-di-tert-butylphenol dihydrochloride] | – | 19 | 50 | – |

| Structure (SMILES) | inhibition in vivo at 100 mg/kg [1] [%] | inhibition at 1 µM (5-lipoxygenase) [%] | inhibition at 10 µM (5-lipoxygenase) [%] | inhibition in vivo at 5 mg/kg ([1]; Rattus norvegicus, 3 h) [%] |
| --- | --- | --- | --- | --- |
| CC(C)(C)c1cc(Nc2ccccc2/C=C/C(=O)O)cc(C(C)(C)C)c1O [Compound 48, 2-(3,5-di-tert-butyl-4-hydroxyphenylamino)cinnamic acid] | 62 | – | – | – |
| CCCCCC(=O)/C=C/c1cccc(Nc2cc(C(C)(C)C)c(O)c(C(C)(C)C)c2)c1 [Compound 51] | 10 | – | – | – |
| CCOC(=O)/C=C/c1cccc(Nc2cc(C)c(O)c(C)c2C)c1 [Compound 52, ethyl 3-(4-hydroxy-2,3,5-trimethylphenylamino)cinnamate hydrochloride] | – | 75 | 95 | – |
| CCCCCCCCCNC(=O)c1ccc(Nc2cc(C(C)(C)C)c(O)c(C(C)(C)C)c2)cc1 [Compound 63] | 29 | – | – | – |
| CCCCCCNC(=O)/C=C/c1cccc(Nc2cc(C(C)(C)C)c(O)c(C(C)(C)C)c2)c1 [Compound 66] | 15 | – | – | – |
| CC(C)(C)c1cc(Nc2ccc(CC(=O)N3CCOCC3)cc2)cc(C(C)(C)C)c1O [Compound 71] | 20 | – | – | – |
| CC(C)(C)c1cc(Nc2ccc(CC(=O)NN)cc2)cc(C(C)(C)C)c1O [Compound 76, 2,6-di-tert-butyl-4-(4-hydrazinocarbonylmethylphenylamino)phenol] | 47 | – | – | – |
| Cc1cc(Nc2ccccc2)c2c(c1O)CCCC2 [Compound 80, 2-methyl-4-phenylamino-5,6,7,8-tetrahydronaphthol] | – | 78 | 94 | – |
| Cc1ccc(Nc2cc(C)c(O)c(C)c2C)cc1 [Compound 81, 2,3,6-trimethyl-4-(4-methylphenylamino)phenol] | – | 91 | 95 | – |
| COC(=O)Cc1ccc(Nc2cc(C)c(O)c(C)c2C)cc1 [Compound 86, 4-(4-methoxycarbonylmethylphenylamino)-2,3,6-trimethylphenol] | – | 93 | 92 | – |
| COC(=O)Cc1ccc(Nc2cc(C)c(O)c3c2CCCC3)cc1 [Compound 87, 2-methyl-4-(4-methoxycarbonylmethylphenylamino)-5,6,7,8-tetrahydronaphthol] | – | 89 | 95 | – |
| CC(C)(C)c1cc(Nc2cccc(C(N)=O)c2)cc(C(C)(C)C)c1O [Compound 89] | 31 | – | – | – |
| COc1ccc(Nc2cc(C)c(O)c(C)c2C)cc1 [Compound 91, 2,3,6-trimethyl-4-(4-methoxyphenylamino)phenol] | – | 95 | 95 | – |
| CC(C)(C)c1cc(Nc2ccc(S(C)(=O)=O)cc2)cc(C(C)(C)C)c1O [Compound 92] | 35 | – | – | – |
| CC(C)(C)c1cc(Nc2ccc(S(N)(=O)=O)cc2)cc(C(C)(C)C)c1O [Compound 93] | 16 | – | – | – |
| Cc1cc(Nc2ccc(Cl)cc2)c(C)c(C)c1O [Compound 94, 2,3,6-trimethyl-4-(4-chlorophenylamino)phenol] | – | 90 | 96 | – |
| Cc1cc(Nc2ccc(C(=O)O)cc2)c(C)c(C)c1O [Compound 102] | – | 42 | 90 | – |
| Cc1cc(Nc2cccc(CC(=O)O)c2)c(C)c(C)c1O [Compound 103] | – | 41 | 91 | – |
| Cc1cc(Nc2ccc(CC(=O)O)cc2)c2c(c1O)CCCC2 [Compound 104] | – | 55 | 90 | – |
| CC(Cc1ccc(O)c(O)c1)C(C)Cc1ccc(O)c(O)c1 (stereo not drawn) [NDGA, nordihydroguaiaretic acid, reference compound] | – | 45 | – | – |
| COc1ccc2c(c1)c(CC(=O)O)c(C)n2C(=O)c1ccc(Cl)cc1 [indomethacin, reference compound] | – | – | – | 62 |
